Results reported in patent US9676704B2, “Pesticidal compositions and processes related thereto” (Dow AgroSciences LLC, priority 2014, dated 2017).

Columns and labels:
Beet Armyworm (BAW) = assay: Bioassays on BAW, 128-well diet tray assay; assay type: in vivo; details: Spodoptera exigua; for mortality at 50 µg/cm2: 168 h, 50 μg/cm^2 on artificial diet, second instar larvae, five to seven days, 25° C., read-out: BAW % Control (or Mortality) rating
Experimental: Bioassays on BAW were conducted using a 128-well diet tray assay. one to five second instar BAW larvae were placed in each well (3 mL) of the diet tray that had been previously filled with 1 mL of artificial diet to which 50 μg/cm^2 of the test compound (dissolved in 50 μL of 90:10 acetone-water mixture) had been applied (to each of eight wells) and then allowed to dry. Trays were covered with a clear self-adhesive cover, and held at 25° C., 14:10 light-dark for five to seven days. Percent mortality was recorded for the larvae in each well; activity in the eight wells was then averaged. The results are indicated in the tables entitled “Table ABC: Assay Results (F)”, “Table ABCD: Assay Results (C)”, and “Table ABCDE: Assay Results (P)” (See Table Section).
(§1) Bioassays on BAW and CL were conducted according to the procedures outlined in Example A: Bioassays on Beet Armyworm (“BAW”) and Cabbage Looper (“CL”) using the following concentrations: 5, 0.5, and 0.05 μg/cm^2.

Cabbage Looper (CL) = assay: Bioassays on CL, 128-well diet tray assay; assay type: in vivo; details: Trichoplusia ni; for mortality at 50 µg/cm2: 168 h, 50 μg/cm^2 on artificial diet, second instar larvae, five to seven days, 25° C., read-out: CL % Control (or Mortality) rating
Experimental: Bioassays on CL were conducted using a 128-well diet tray assay. One to five second instar CL larvae were placed in each well (3 mL) of the diet tray that had been previously filled with 1 mL of artificial diet to which 50 μg/cm^2 of the test compound (dissolved in 50 μL of 90:10 acetone-water mixture) had been applied (to each of eight wells) and then allowed to dry. Trays were covered with a clear self-adhesive cover, and held at 25° C., 14:10 light-dark for five to seven days. Percent mortality was recorded for the larvae in each well; activity in the eight wells was then averaged. The results are indicated in the table entitled “Table ABC: Assay Results (F)”, “Table ABCD: Assay Results (C)”, and “Table ABCDE: Assay Results (P)” (See Table Section).
as §1

[1] = test system: Yellow Fever Mosquito (YFM); assay type: in vivo, Aedes aegypti; details: 15 μL of diluted 4000 ppm master solution per well, about 1 day-old larvae, 3 days
Experimental: Master plates containing 400 μg of a molecule dissolved in 100 μL of dimethyl sulfoxide (DMSO) (equivalent to a 4000 ppm solution) are used. A master plate of assembled molecules contains 15 μL per well. To this plate, 135 μL of a 90:10 water:acetone mixture is added to each well. A robot (Biomek® NXP Laboratory Automation Workstation) is programmed to dispense 15 μL aspirations from the master plate into an empty 96-well shallow plate (“daughter” plate). There are 6 reps (“daughter” plates) created per master. The created daughter plates are then immediately infested with YFM larvae. The day before plates are to be treated, mosquito eggs are placed in Millipore water containing liver powder to begin hatching (4 g. into 400 mL). After the daughter plates are created using the robot, they are infested with 220 μL of the liver powder/larval mosquito mixture (about 1 day-old larvae). After plates are infested with mosquito larvae, a non-evaporative lid is used to cover the plate to reduce drying. Plates are held at room temperature for 3 days prior to grading. After 3 days, each well is observed and scored based on mortality. The results are indicated in the table entitled “Table ABC: Assay Results (F)” and “Table ABCD: Assay Results (C)” (See Table Section). Pesticidally Acceptable Acid Addition Salts, Salt Derivatives, Solvates, Ester Derivatives, Polymorphs, Isotopes and Radionuclides

## CN(CCNC(=O)c1ccc(/C=C/C(c2cc(Cl)c(Cl)c(Cl)c2)C(F)(F)F)cc1C(F)(F)F)C(=O)C(F)(F)F (stereo not drawn) [Compound F21, (E)-4-(4,4,4-trifluoro-3-(3,4,5-trichlorophenyl)but-1-en-1-yl)-N-(2-(2,2,2-trifluoro-N-methylacetamido)ethyl)-2-(trifluoromethyl)benzamide]
Beet Armyworm (BAW)
  mortality at 50 µg/cm2: 50 to 100%
Cabbage Looper (CL)
  mortality at 50 µg/cm2: 50 to 100%
[1]
  YFM % Control (or Mortality) rating: B (More than 0-Less than 80)

## C[C@H](NC(=O)CCC(F)(F)F)NC(=O)c1ccc(/C=C/C(c2cc(Br)c(Cl)c(Br)c2)C(F)(F)F)cc1C(F)(F)F (stereo partly drawn) [Compound P10, 4-((E)-3-(3,5-Dibromo-4-chlorophenyl)-4,4,4-trifluorobut-1-en-1-yl)-N—((R)-1-(4,4,4-trifluorobutanamido)ethyl)-2-(trifluoromethyl)benzamide]
Beet Armyworm (BAW)
  mortality at 50 µg/cm2: 50 to 100%
Cabbage Looper (CL)
  mortality at 50 µg/cm2: 50 to 100%
[1]
  YFM % Control (or Mortality) rating: A (80-100)

## C[C@H](NC(=O)CCCC(C)(C)C)NC(=O)c1ccc(/C=C/C(c2cc(Cl)c(Cl)c(Cl)c2)C(F)(F)F)cc1C(F)(F)F (stereo partly drawn) [Compound F18, N—((R)-1-(5,5-Dimethylhexanamido)ethyl)-4-((E)-4,4,4-trifluoro-3-(3,4,5-trichlorophenyl)but-1-en-1-yl)-2-(trifluoromethyl)benzamide]
Beet Armyworm (BAW)
  mortality at 50 µg/cm2: 50 to 100%
Cabbage Looper (CL)
  mortality at 50 µg/cm2: 50 to 100%
[1]
  YFM % Control (or Mortality) rating: A (80-100)

## CN(NC(=O)c1ccc(/C=C/C(c2cc(Cl)c(Cl)c(Cl)c2)C(F)(F)F)cc1C(F)(F)F)C(=O)CCC(F)(F)F (stereo not drawn) [Compound F23, (E)-N′-Methyl-4-(4,4,4-trifluoro-3-(3,4,5-trichlorophenyl)but-1-en-1-yl)-N′-(4,4,4-trifluorobutanoyl)-2-(trifluoromethyl)benzohydrazide]
Beet Armyworm (BAW)
  mortality at 50 µg/cm2: 50 to 100%
Cabbage Looper (CL)
  mortality at 50 µg/cm2: 50 to 100%
[1]
  YFM % Control (or Mortality) rating: A (80-100)

## Cc1cc(/C=C/C(c2cc(Br)c(Cl)c(Br)c2)C(F)(F)F)ccc1C(=O)N[C@H](C)NC(=O)CCC(F)(F)F (stereo partly drawn) [Compound P14, 4-((E)-3-(3,5-Dibromo-4-chlorophenyl)-4,4,4-trifluorobut-1-en-1-yl)-2-methyl-N—((R)-1-(4,4,4-trifluorobutanamido)ethyl)benzamide]
Beet Armyworm (BAW)
  mortality at 50 µg/cm2: 50 to 100%
Cabbage Looper (CL)
  mortality at 50 µg/cm2: 50 to 100%
[1]
  YFM % Control (or Mortality) rating: A (80-100)

## CC(C)CC(=O)N[C@@H](C)NC(=O)c1ccc(/C=C/C(c2cc(Cl)c(Cl)c(Cl)c2)C(F)(F)F)cc1C(F)(F)F (stereo partly drawn) [Compound F6, N—((R)-1-(3-Methylbutanamido)ethyl)-4-((E)-4,4,4-trifluoro-3-(3,4,5-trichlorophenyl)but-1-en-1-yl)-2-(trifluoromethyl)benzamide]
Beet Armyworm (BAW)
  mortality at 50 µg/cm2: 50 to 100%
Cabbage Looper (CL)
  mortality at 50 µg/cm2: 50 to 100%
[1]
  YFM % Control (or Mortality) rating: A (80-100)

## CC(NC(=O)c1ccc(/C=C/C(c2cc(Cl)c(Cl)c(Cl)c2)C(F)(F)F)cc1C(F)(F)F)NC(=O)C(C)(C)C (stereo in doubt) [Compound F19, N—((S)-1-Pivalamidoethyl)-4-((E)-4,4,4-trifluoro-3-(3,4,5-trichlorophenyl)but-1-en-1-yl)-2-(trifluoromethyl)benzamide]
Beet Armyworm (BAW)
  mortality at 50 µg/cm2: 50 to 100%
Cabbage Looper (CL)
  mortality at 50 µg/cm2: 50 to 100%
[1]
  YFM % Control (or Mortality) rating: A (80-100)

## C[C@H](NC(=O)CCC(C)(C)C)NC(=O)c1ccc(/C=C/C(c2cc(Cl)c(Cl)c(Cl)c2)C(F)(F)F)cc1C(F)(F)F (stereo partly drawn) [Compound F17, N—((R)-1-(4,4-Dimethylpentanamido)ethyl)-4-((E)-4,4,4-trifluoro-3-(3,4,5-trichlorophenyl)but-1-en-1-yl)-2-(trifluoromethyl)benzamide]
Beet Armyworm (BAW)
  mortality at 50 µg/cm2: 50 to 100%
Cabbage Looper (CL)
  mortality at 50 µg/cm2: 50 to 100%
[1]
  YFM % Control (or Mortality) rating: A (80-100)

## Cc1cc(/C=C/C(c2cc(Cl)c(Br)c(Cl)c2)C(F)(F)F)ccc1C(=O)N[C@H](C)NC(=O)CC(F)(F)F (stereo partly drawn) [Compound P8, 4-((E)-3-(4-Bromo-3,5-dichlorophenyl)-4,4,4-trifluorobut-1-en-1-yl)-2-methyl-N—((R)-1-(3,3,3-trifluoropropanamido)ethyl)benzamide]
Beet Armyworm (BAW)
  mortality at 50 µg/cm2: 50 to 100%
Cabbage Looper (CL)
  mortality at 50 µg/cm2: 50 to 100%

## C[C@H](NC(=O)CC(F)(F)F)NC(=O)c1ccc(/C=C/C(c2cc(Cl)c(F)c(Cl)c2)C(F)(F)F)cc1C(F)(F)F (stereo partly drawn) [Compound P1, 4-((E)-3-(3,5-Dichloro-4-fluorophenyl)-4,4,4-trifluorobut-1-en-1-yl)-2-(trifluoromethyl)-N—((R)-1-(3,3,3-trifluoropropanamido)ethyl)benzamide]
Beet Armyworm (BAW)
  mortality at 50 µg/cm2: 50 to 100%
Cabbage Looper (CL)
  mortality at 50 µg/cm2: 50 to 100%

## CSCCC(=O)N[C@@H](C)NC(=O)c1ccc(/C=C/C(c2cc(Cl)c(Cl)c(Cl)c2)C(F)(F)F)cc1C(F)(F)F (stereo partly drawn) [Compound P53, N—((R)-1-(3-(Methylthio)propanamido)ethyl)-4-((E)-4,4,4-trifluoro-3-(3,4,5-trichlorophenyl)but-1-en-1-yl)-2-(trifluoromethyl)benzamide]
Beet Armyworm (BAW)
  mortality at 50 µg/cm2: 50 to 100%
Cabbage Looper (CL)
  mortality at 50 µg/cm2: 50 to 100%

## Cc1cc(/C=C/C(c2cc(Cl)c(Cl)c(Cl)c2)C(F)(F)F)ccc1C(=O)N[C@H](C)NC(=O)CCC(F)(F)F (stereo partly drawn) [Compound P25, 2-Methyl-4-((E)-4,4,4-trifluoro-3-(3,4,5-trichlorophenyl)but-1-en-1-yl)-N—((R)-1-(4,4,4-trifluorobutanamido)ethyl)benzamide]
Beet Armyworm (BAW)
  mortality at 50 µg/cm2: 50 to 100%
Beet Armyworm (BAW); 0.05 μg/cm^2, read-out: BAW Percent control (or mortality)
  mortality at 0.05 µg/cm2: 100%
Beet Armyworm (BAW); 0.5 μg/cm^2, read-out: BAW Percent control (or mortality)
  mortality at 0.5 µg/cm2: 100%
Beet Armyworm (BAW); 5 μg/cm^2, read-out: BAW Percent control (or mortality)
  mortality at 5 µg/cm2: 100%
Cabbage Looper (CL)
  mortality at 50 µg/cm2: 50 to 100%
Cabbage Looper (CL); 0.05 μg/cm^2, read-out: CL Percent control (or mortality)
  mortality at 0.05 µg/cm2: 100%
Cabbage Looper (CL); 0.5 μg/cm^2, read-out: CL Percent control (or mortality)
  mortality at 0.5 µg/cm2: 100%
Cabbage Looper (CL); 5 μg/cm^2, read-out: CL Percent control (or mortality)
  mortality at 5 µg/cm2: 100%

## Cc1cc(/C=C/C(c2cc(Cl)c(Br)c(Cl)c2)C(F)(F)F)ccc1C(=O)N[C@H](C)NC(=O)CCC(F)(F)F (stereo partly drawn) [Compound P16, 4-((E)-3-(4-Bromo-3,5-dichlorophenyl)-4,4,4-trifluorobut-1-en-1-yl)-2-methyl-N—((R)-1-(4,4,4-trifluorobutanamido)ethyl)benzamide]
Beet Armyworm (BAW)
  mortality at 50 µg/cm2: 50 to 100%
Cabbage Looper (CL)
  mortality at 50 µg/cm2: 50 to 100%

## C[C@H](NC(=O)CS(C)(=O)=O)NC(=O)c1ccc(/C=C/C(c2cc(Cl)c(Cl)c(Cl)c2)C(F)(F)F)cc1C(F)(F)F (stereo partly drawn) [Compound P43, N—((S)-1-(2-(Methylsulfonyl)acetamido)ethyl)-4-((E)-4,4,4-trifluoro-3-(3,4,5-trichlorophenyl)but-1-en-1-yl)-2-(trifluoromethyl)benzamide]
Beet Armyworm (BAW)
  mortality at 50 µg/cm2: 50 to 100%
Cabbage Looper (CL)
  mortality at 50 µg/cm2: 50 to 100%

## Cc1cc(/C=C/C(c2cc(Br)cc(Br)c2)C(F)(F)F)ccc1C(=O)N[C@H](C)NC(=O)CCC(F)(F)F (stereo partly drawn) [Compound P15, 4-((E)-3-(3,5-Dibromophenyl)-4,4,4-trifluorobut-1-en-1-yl)-2-methyl-N—((R)-1-(4,4,4-trifluorobutanamido)ethyl)benzamide]
Beet Armyworm (BAW)
  mortality at 50 µg/cm2: 50 to 100%
Cabbage Looper (CL)
  mortality at 50 µg/cm2: 50 to 100%

## CNCCNC(=O)c1ccc(/C=C/C(c2cc(Cl)c(Cl)c(Cl)c2)C(F)(F)F)cc1C(F)(F)F (stereo not drawn) [Compound C115, (E)-N-(2-(methylamino)ethyl)-4-(4,4,4-trifluoro-3-(3,4,5-trichlorophenyl)but-1-en-1-yl)-2-(trifluoromethyl)benzamide]
Beet Armyworm (BAW)
  mortality at 50 µg/cm2: 50 to 100%
Cabbage Looper (CL)
  mortality at 50 µg/cm2: 0%

## C[C@H](NC(=O)CCS(C)(=O)=O)NC(=O)c1ccc(/C=C/C(c2cc(Cl)c(Cl)c(Cl)c2)C(F)(F)F)cc1C(F)(F)F (stereo partly drawn) [Compound P47, N—((R)-1-(3-(methylsulfonyl)propanamido)ethyl)-4-((E)-4,4,4-trifluoro-3-(3,4,5-trichlorophenyl)but-1-en-1-yl)-2-(trifluoromethyl)benzamide]
Beet Armyworm (BAW)
  mortality at 50 µg/cm2: 50 to 100%
Cabbage Looper (CL)
  mortality at 50 µg/cm2: 50 to 100%
